Laboratory results published in patent US11492366B2, “Platinum compounds for binding guanine quadruplexes” (QUEEN'S UNIVERSITY AT KINGSTON, priority 2017, dated 2022).

Experiments:
22AG [1] = assay: Circular dichroism titration, 22AG; type: binding, human; conditions: for Binder-induced conformational change of 22AG from hybrid to antiparallel (CD): K+ buffer (100 mM KCl), 0-5 equivalents binder
Procedure: Referring to FIGS. 3A and 3B, representative CD spectra from titrations where binders are added to A) 22AG and B) c-myc in potassium buffer (10 mM lithium cacodylate buffer (pH 7.2) and 100 mM KCl) are provided. Specifically, these graphs show changes in Δ A upon addition of Pt(11)2 (0-5 equivalents). Such experiments were performed for all novel binders of Formula (1) described in Table 1 with the exception of Pt(6)2.
The latter phenomenon is of particular interest in the case of the polymorphic quadruplex 22AG, which can adopt parallel, hybrid, and/or antiparallel topologies. […] The interactions of all novel binders of Formula (1) except Pt(6)2 (see Table 1) with 22AG and c-myc have been confirmed through similar CD titrations. In FIG. 3A, spectral changes such as the appearance of a peak at […] are consistent with a conformational change from a hybrid to an antiparallel 22AG quadruplex (Randazzo et al, Top. Curr. Chem. (2013) 330: 67-86).
500 μL Aliquots of 22AG and c-myc were folded at 3 μM by rapid annealing (2 min. at 90° C. followed by cooling in ice) in 10 mM lithium cacodylate (pH 7.2) and 100 mM potassium chloride. G4 binders were prepared in the same buffer at 37.5 or 75 μM, such that 0.5 equiv. binder was equivalent to 10 or 20 μL additions. Spectra at 0, 0.5, 1.0, 1.5, 2.0, 3.0, and 5.0 equivalents of binder added to G4 were acquired after 15 minutes of equilibration. Each spectrum was collected using a Jasco J-815 spectrometer with the following experimental parameters: wavelength range: 200-500 nm, data pitch: 1 nm, D.I.T.: 0.5 s, scan speed: 100 nm/min, accumulations: 3. Acquired data was then blank-corrected and baseline-corrected. Curves were smoothed by taking the average of the ellipticity data from the preceding 4 wavelengths as well as the current wavelength.

FTBAT = assay: FRET melting assay, FTBAT; type: binding; conditions: DNA quadruplex; 0.2 μM binder, 0.1 μM oligonucleotide, K+ buffer; dichloride salts
Source text: (§1) All samples tested are guanine quadruplexes except FdxT, which is in duplex form. Binding of G4s by the specified binders of Formula (1) was shown.
(§2) 96-Well plate FRET melting assays were adapted from literature protocols (A. De Rache, J.-L. Mergny, Biochimie (2015),115: 194-202) and conducted using a Strategene Mx3005P real-time PCR apparatus. G4 oligonucleotides labelled with 5′-FAM (6-carboxyfluorescein) and 3′-TAMRA (6-carboxytetramethylrhodamine) fluorophores were folded by rapid annealing in buffer (2 min. at 90° C. followed by cooling in ice). The FAM fluorescent tag was excited at 492 nm and its emission followed at 516 nm while the plates were incubated at 25° C. (5 min.) and then heated (1° C./min) to 95° C. Each condition was repeated in duplicate, and every experiment was repeated at least three times for reproducibility. Final oligonucleotide concentration ([…]) and buffer conditions (10 mM lithium cacodylate, pH 7.2 with either 10 mM potassium chloride/90 mM lithium chloride or 100 mM sodium chloride for DNA, or with 1 mM potassium chloride and 99 mM lithium chloride for RNA) were kept constant. T1/2 values were obtained as the temperature at which the normalized fluorescence emission is 0.5, with ΔT1/2=T1/2 (G4+ binder) — T1/2 (G4). […]

22AG [2] = assay: FID titration (thiazole orange displacement) and data fitting; type: binding, human; conditions: K buffer, error 3σ × standard deviation
Procedure: Specifically, such titrations involve the addition of a binder to a thiazole orange (TO):22AG complex (0.25 or 0.5 μM DNA) in potassium buffer (10 mM lithium cacodylate buffer (pH 7.2) and 100 mM KCl). FIG. 4A provides an example of the blank-, baseline-, and volume-corrected fluorescence spectra obtained from the titration of Pt(2)2 with TO-22AG. […] Previous experiments indicate that the fluorophore binds to the quadruplex in a 1:1 TO:22AG stoichiometry, thus potentially leaving a second binding site unoccupied on the other terminal guanine tetrad of 22AG. […]
FID assays were adapted from literature protocols (Monchaud et al., Biochimie (2008) 90: 1207-23). […] In order to derive binding constants from FID data, fluorescence titrations monitoring the binding of TO to the quadruplex examined were first performed in triplicate. A TO-G4 binding constant was determined by data fitting using the HypSpec2014 software (see below). […]
Experiments were performed in a 1.5 mL cell at 25° C. […] Following a 3 minute equilibrium period after each addition, the fluorescence emission spectrum was recorded (λex=501 nm, λem=510-750 nm, bandwidth 5 nm, step size 1 nm). […]
A blank sample containing only buffer was measured in a 1.5 mL fluorescence cuvette to serve as reference. […]

F21CTAT = assay: FRET melting assay, F21CTAT; type: binding; conditions: DNA quadruplex; 0.2 μM binder, 0.1 μM oligonucleotide, K+ buffer; dichloride salts
Source text: as §1, §2

F25cebT = assay: FRET melting assay, F25cebT; type: binding; conditions: DNA quadruplex; 0.2 μM binder, 0.1 μM oligonucleotide, K+ buffer; dichloride salts
Source text: as §1, §2

Fc-mycT = assay: FRET melting assay, Fc-mycT; type: binding; conditions: DNA quadruplex; 0.2 μM binder, 0.1 μM oligonucleotide, K+ buffer; dichloride salts
Source text: as §1, §2

F21T = assay: FRET melting assay, F21T; type: binding; conditions: DNA quadruplex; 0.2 μM binder, 0.1 μM oligonucleotide, K+ buffer; dichloride salts
Source text: as §1, §2

F21RT = assay: FRET melting assay, F21RT; type: binding; conditions: RNA quadruplex; 0.2 μM binder, 0.1 μM oligonucleotide, K+ buffer (1 mM KCl/99 mM LiCl for RNA); dichloride salts
Source text: as §1, §2

FBom17T = assay: FRET melting assay, FBom17T; type: binding; conditions: DNA quadruplex; 0.2 μM binder, 0.1 μM oligonucleotide, K+ buffer; dichloride salts
Source text: as §1, §2

FdxT = assay: FRET melting assay, FdxT duplex; type: binding; conditions: DNA duplex; 0.2 μM binder, 0.1 μM oligonucleotide, K+ buffer; dichloride salts
Source text: as §1, §2

guanine quadruplexes = assay: FRET melting assays, overall statements; type: binding; conditions: 0.2 μM binder
Source text: as §1, §2

Row | Compound | Binder-induced conformational change of 22AG from hybrid to antiparallel (CD) (22AG [1]) | Preferentially bound topology of human telomeric 22AG (22AG [1]; in potassium) | Average Binder-Induced Stabilization of Melting Temperature (ΔT1/2), FTBAT (FTBAT) [°C] | Average Log(β), 2:1 binder:G4 complex (22AG [2]) [M^−2] | Average Binder-Induced Stabilization of Melting Temperature (ΔT1/2), F21CTAT (F21CTAT) [°C] | Average Binder-Induced Stabilization of Melting Temperature (ΔT1/2), F25cebT (F25cebT) [°C] | Average Binder-Induced Stabilization of Melting Temperature (ΔT1/2), Fc-mycT (Fc-mycT) [°C] | Average Binder-Induced Stabilization of Melting Temperature (ΔT1/2), F21T (F21T) [°C] | Average Binder-Induced Stabilization of Melting Temperature (ΔT1/2), F21RT (F21RT) [°C] | Average Binder-Induced Stabilization of Melting Temperature (ΔT1/2), FBom17T (FBom17T) [°C] | Average Binder-Induced Stabilization of Melting Temperature (ΔT1/2), FdxT (FdxT) [°C] | Stabilization / binding of guanine quadruplexes (in words) (guanine quadruplexes)
1 | CC(=O)NCC(=O)NCC(=O)Nc1ccc2n[n+]3c(n2c1)-c1cccc[n+]1[Pt-2]31[n+]2ccccc2-c2n3cc(NC(=O)CNC(=O)CNC(C)=O)ccc3n[n+]21 [Pt(19)2] | to a lesser extent | – | – | – | – | – | – | – | – | – | – | –
2 | CC(C)(C)OC(=O)Nc1ccc2n[n+]3c(n2c1)-c1cccc[n+]1[Pt-2]31[n+]2ccccc2-c2n3cc(NC(=O)OC(C)(C)C)ccc3n[n+]21 [Pt(17)2] | no conformational changes are observed | preferentially bind to a hybrid topology | – | – | – | – | – | – | – | – | – | –
3 | CC(=O)NCC(=O)Nc1ccc2n[n+]3c(n2c1)-c1cccc[n+]1[Pt-2]31[n+]2ccccc2-c2n3cc(NC(=O)CNC(C)=O)ccc3n[n+]21 [Pt(18)2] | to a lesser extent | – | – | – | – | – | – | – | – | – | – | –
4 | C[n+]1cc(NC(=O)c2ccc3ccc4ccc(C(=O)Nc5cc6ccccc6[n+](C)c5)nc4c3n2)cc2ccccc21 [Phen-DC3, reference compound] | – | – | 6.4 | 16.0 ± 1.3 | 11.7 | >8.5 | 11.3 | 16.4 | 13.3 | 3.2 | 0.6 | –
5 | C#Cc1ccc2[n+](c1)[Pt-2]1([n+]3cc(C#C)ccc3-c3n4ccccc4n[n+]31)[n+]1nc3ccccn3c1-2 [Pt(6)2] | – | – | 1.8 | – | 1.9 | 0.9 | 0.2 | 0.9 | 4.5 | 0.7 | 0.4 | binding was minimal
